Results as given in US20250228842A1, “USES OF A SOMATOSTATIN MODULATOR FOR THE TREATMENT OF CARCINOID SYNDROME” (Crinetics Pharmaceuticals, Inc., priority 2022, published 2025).

What was measured:
[1] = tested on: insulin-like growth factor-1 (IGF-1) level; experiment: Phase 2 acromegaly trials (ACROBAT Edge / Evolve): IGF-1 level; type: in vivo, human
Protocol: (§1) An open label exploratory study designed to evaluate the safety, efficacy, and pharmacokinetics of Compound A (also known as paltusotine) in subjects with acromegaly that are treated with somatostatin analogue (SSA) based treatment regimens.
10 mg HMG capsule formulation. Multiple capsules were swallowed with water depending on dose specified for a given period/cohort.
Primary Outcome Measures: Change from baseline (mean of Screening values) in insulin-like growth factor-1 (IGF-1) level [Time Frame: 13 Weeks].
Primary Outcome Measures: Proportion of subjects who meet responder criteria (based on the mean of two consecutive insulin-like growth factor-1 [IGF-1] measurements ≤upper limit of normal [ULN]) (Time Frame: 13 Weeks).
(§2) Secondary Outcome Measures: 1) Change in IGF-1 levels [Time Frame: From Week 10 to Week 13]. 2) Change in growth hormone (GH) levels [Time Frame: From Week 8 to Week 13]. 3) Change in patient assessed symptoms of acromegaly [Time Frame: From Week 10 to Week 13]. Total score computed by adding each of the individual acromegaly symptom intensities (headache pain, joint pain, sweating, fatigue, weakness in legs, swelling, numbness or tingling).
(§3) The primary hypothesis was that the group would show no change in the median IGF-1 at Week 13 versus baseline.

[2] = Tolerability in studies on subjects with acromegaly; type: in vivo, human; details: 40 mg
carcinoid syndrome = details: cited from earlier work
[3] = Phase 1 multi-cohort single dose study, plasma pharmacokinetics in healthy subjects; type: in vivo, human
Protocol: Cohort 1: To characterize performance of 10 mg tablets prepared by spray-dried dispersion (SDD) of Compound A-HCl salt.
Cohort 2: To evaluate the relative bioavailability of 10 mg SDD tablets compared to the Compound A-HCl hot melt granulation (HMG) formulation, 10 mg capsules. To determine the effect of timing of food administration on pharmacokinetics of low dose of the 10 mg SDD tablets.
Cohort 5: To determine the effect of the proton-pump inhibitor (PPI), lansoprazole, on the pharmacokinetics of a 60 mg dose of SDD tablets. To determine the effect of a low-fat meal on the pharmacokinetics of a 60 mg dose of SDD tablets.
The SDD tablets were evaluated. Up to twelve (12) healthy male and female subjects were enrolled in each cohort. Cohort 1 consisted of 4 periods: In Period 1, subjects were administered a proton-pump inhibitor (lansoprazole, 15 mg BID for 3 days (from Day-3), taken orally at least 30 min prior to a meal, once in the morning and once in the evening). On the fourth day (Day 1 of study), fasted subjects will take the last dose of lansoprazole (15 mg) 60 min prior to 20 mg Compound A (2×10 mg of the SDD tablets). In Period 2, fasted subjects were administered 20 mg Compound A (2×10 mg of the SDD tablets). In Period 3, fasted subjects were administered 20 mg Compound A (2×10 mg of the SDD tablets) with a high-fat, high-calorie meal. In Period 4, fasted subjects will take up to 80 mg Compound A (up to 8×10 mg of the SDD tablets). The actual dose was selected based on the pharmacokinetic data from Period 2.
For Period 1: In the evening before dosing (Day −1), subjects were administered their evening dose of 15 mg lansoprazole, provided an evening meal at least 30 min after administration of lansoprazole, and then were required to fast overnight (≥10 hr) on Day −1. […]
The cohort consisted of three periods. The PK of 60 mg paltusotine administered as 3×20 mg SDD tablets was assessed using the following criteria: effect of a low-fat meal on the PK of paltusotine (Period 1 and Period 3) and effect of the PPI lansoprazole on the PK of paltusotine (Period 2) as follows: […]

[4] = tested on: growth hormone (GH) levels; experiment: Phase 2 acromegaly trials (ACROBAT Edge / Evolve): GH level; type: in vivo, human
Protocol: as §1, §2, §3

[5] = after 13 weeks of treatment, acromegaly patients previously treated with injected SRL depots

**Q.** Which “steady state IGF-1 change vs baseline (last LA-SRL injection)” value ([1]; 10 and 20 mg per day, acromegaly patients previously treated with LA-SRLs) does the source give for `Cl.N#Cc1cccc(-c2ccc3ncc(-c4cc(F)cc(F)c4)c(N4CCC(N)CC4)c3c2)c1O` [Compound A-HCl, 3-[4-(4-amino-piperidin-1-yl)-3-(3,5-difluoro-phenyl)-quinolin-6-yl]-2-hydroxy-benzonitrile monohydrochloride] here?
**A.** above baseline

**Q.** And the “steady state IGF-1 change from baseline (last LA-SRL injection)” value ([1]; 30/day and 40 mg/day, acromegaly patients previously treated with LA-SRLs)?
**A.** near zero

**Q.** What about the tolerability [2] of the same compound?
**A.** well tolerated

**Q.** Which “patients with carcinoid syndrome who respond” value (carcinoid syndrome) does the source give for `C[C@@H](O)[C@@H]1NC(=O)[C@H](CCCCN)NC(=O)[C@@H](Cc2c[nH]c3ccccc23)NC(=O)[C@H](Cc2ccccc2)NC(=O)[C@@H](NC(=O)[C@H](N)Cc2ccccc2)CSSC[C@@H](C(=O)N[C@H](CO)[C@@H](C)O)NC1=O` [octreotide] here?
**A.** 80%

**Q.** For `N#Cc1cccc(-c2ccc3ncc(-c4cc(F)cc(F)c4)c(N4CCC(N)CC4)c3c2)c1O` [Compound A, 3-(4-(4-amino-piperidin-1-yl)-3-(3,5-difluoro-phenyl)-quinolin-6-yl)-2-hydroxy-benzonitrile], which “reduction of exposures (Cmax and AUC)” value ([3]; when administered with PPI, 60 mg) is on record?
**A.** ~40%

**Q.** And the “reduction of exposures (Cmax and AUC)” value ([3]; when administered with high-fat meal)?
**A.** > 80%

**Q.** And the “reduction of exposures (Cmax and AUC)” value ([3]; when administered with low-fat meal, 60 mg)?
**A.** ~60%

**Q.** What about the “IGF-1 levels vs baseline” value [1, 5] of the same compound?
**A.** did not significantly change from baseline

**Q.** And the IGF-1 after withdrawal ([1]; within 2 weeks after withdrawal)?
**A.** Rise in IGF-1 after withdrawal

**Q.** What about the “GH levels vs baseline” value [4, 5] of the same compound?
**A.** did not significantly change from baseline

**Q.** And the GH after withdrawal ([4]; after withdrawal)?
**A.** Rise in GH after withdrawal
